These results are taken from US20250049791A1, “Synthesis of MEK7 Inhibitors and methods of Use Thereof” (Northwestern University, priority 2023, published 2025).

In data set [1] the target is T1, recombinant active full-length human MEK7 (Homo sapiens, UniProt O14733).
T1 construct: recombinant active full-length human MEK7 (Carna Biosciences); purchased Carna Biosciences
T1 sequence (O14733 1-419): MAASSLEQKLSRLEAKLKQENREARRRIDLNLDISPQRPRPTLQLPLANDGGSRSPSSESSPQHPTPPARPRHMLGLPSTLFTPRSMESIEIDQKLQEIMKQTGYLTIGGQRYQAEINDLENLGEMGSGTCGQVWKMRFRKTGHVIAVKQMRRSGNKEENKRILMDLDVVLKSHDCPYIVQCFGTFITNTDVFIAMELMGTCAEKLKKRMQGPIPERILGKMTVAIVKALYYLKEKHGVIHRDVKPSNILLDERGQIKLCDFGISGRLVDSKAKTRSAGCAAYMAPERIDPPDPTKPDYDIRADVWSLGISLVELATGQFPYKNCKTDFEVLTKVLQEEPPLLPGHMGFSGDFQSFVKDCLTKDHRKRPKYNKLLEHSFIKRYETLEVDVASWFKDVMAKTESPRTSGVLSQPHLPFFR
In words: ADP-Glo kinase activity assay, MEK7 with JNK1 substrate. The data set is classed as biochemical. The method, then:
Procedure for a 5 μL Kinase reaction using the ADP-Glo Kinase Assay Kit from Promega. Staurosporine was used as the positive control, and DMSO (vehicle) was employed as the negative control. Activity of recombinant active full-length human MEK7 (Carna Biosciences) was measured with recombinant full-length human substrate JNK1 (MAPK8). Using a Mantis, a mixture of MEK7 and JNK1 was dispensed into a 384-well low volume white Proxiplate. For each well, 4 ng of MEK7 and 600 ng of JNK1 in kinase buffer (CST) were used, accounting for 1 μL of this mixture per well. Inhibitor was prepared in a DMSO solution (40 mM). A dose-response dilution was performed in a 384-well Echo transfer plate. Using an Echo Access, 10 nL of each solution was dispensed into the same 384-well low volume white Proxiplate as above. This mixture was allowed to incubate for 30 minutes at room temperature. Using a Mantis, 1 uL of an 8 μM ATP solution was added to each well, and the plate was allowed to incubate for another 1 hour at room temperature. Using the Mantis again, 4 μL of ADP Glo Reagent was dispensed into each well, and the plate was allowed to incubate for 45 min at room temperature. Finally, 9 μL of Kinase Detection Reagent was added manually to each well, and the plate was allowed to incubate for 45 minutes at room temperature. Luminescence was read on a Synergy Neo2 Plate Reader with filter cubes 3 and 114. Integration time was set to 0.20 seconds, gain set to 160, and read height set at 6 mm. All experiments were performed in triplicate on the plate, and at least in one separate technical duplicate was performed.
MEK4 selectivity was performed in the same manner with activated MEK4 (Carna Biosciences). Here, p-38α was employed as the kinase substrate in lieu of JNK1 due to the availability of reagents. […] To probe the ATP-competitive nature of 25, this compound was subjected to a similar assay forgoing the 30 minute incubation time described above (STAR Protocols 2021, 2, 100717). The results are tabulated below in compound characterization. Potency determined by duplicate of triplicates corresponded to a IC50 value, which is in line with the ratio difference observed among other covalent inhibitors (for examples, see Cell Chem. Biol. 2020, 27, 1285).

For data set [2], the system named is JNK and ATF2 phosphorylation in T-ALL cells. Put plainly: Immunoblot analysis of JNK and ATF2 phosphorylation. The data set is classed as cell-based. As to the method:
Cells were lysed with SDS lysis buffer containing (10 mM Tris pH 7.4 containing 1% SDS and 1 mM PMSF) and supplemented with Halt Protease and Phosphatase Inhibitor Cocktail (ThermoFisher) after 24 h of incubation. Protein lysates were electrophoresed onto SDS PAGE gel and transferred to the PVDF membrane using the iBLOT system. Antibodies phospho-SAPK/JNK (clone 81E11) (#4668) and SAPK/JNK (#9252) were used at 1:5000 dilution. Secondary antibodies cross-linked with HRP (anti-rabbit IgG #7074 and anti-mouse IgG #7076) were used for respective primary antibodies at concentrations 1:20,000. Protein detection was performed using West Femto Maximum Sensitivity Substrate (ThermoFisher) and Amersham Hyperfilm ECL (GE).

The subject of data set [3] is Jurkat and KOPTK1. Put plainly: Washout cytotoxicity experiment. As to conditions: 18 hours with compound, washed, 30 hours. The data set is classed as cell-based. The method, then:
T-cell cell lines Jurkat and KOPTK1 were plated in triplicates (20×10^4 cells per 96-well plate) and cultured with different concentrations of DK-2403 compound for 18 hours. Cells were washed twice to remove DK-2403 and incubated for 30 hours. Cell viability was measured (48 hours) using CellTiter-Glo luminescent cell viability assay.

Data set [4] addresses T2, MEK5 (Homo sapiens, UniProt Q13163).
T2 sequence (Q13163 1-448): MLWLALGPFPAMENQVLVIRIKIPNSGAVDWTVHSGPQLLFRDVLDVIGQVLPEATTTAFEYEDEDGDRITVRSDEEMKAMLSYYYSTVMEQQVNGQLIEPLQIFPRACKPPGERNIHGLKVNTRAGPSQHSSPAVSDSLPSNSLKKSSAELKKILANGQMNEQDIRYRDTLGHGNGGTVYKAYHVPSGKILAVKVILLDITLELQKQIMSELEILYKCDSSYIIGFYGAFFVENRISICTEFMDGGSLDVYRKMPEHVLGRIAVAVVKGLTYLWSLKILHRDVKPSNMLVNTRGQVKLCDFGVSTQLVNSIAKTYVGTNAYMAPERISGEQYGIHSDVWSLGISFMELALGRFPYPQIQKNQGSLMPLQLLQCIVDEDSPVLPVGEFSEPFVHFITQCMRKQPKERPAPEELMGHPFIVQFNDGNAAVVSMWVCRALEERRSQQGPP
In words: Additional selectivity assay, MEK5 (FIG. 9). The data set is classed as binding.

Data set [5] concerns JNK1/2/3. Put plainly: ScanEDGE competition binding, JNK1/2/3. As to conditions: ScanEDGE screen. The text has this:
The ScanEDGE assay, completed by DiscoverX (Eurofins) is a proprietary active site-directed competition binding assay. Compounds that bind the kinase active site prevent kinase binding to the immobilized ligand, reducing the amount of kinase captured on the solid support. Hits are identified by measuring the amount of kinase captured in experimental vs, control samples by a qPCR method that detects an associated DNA label. According to data provided by Eurofins, a typical hit at 5-10% of control signal in a 1 μM assay as shown above is generally associated with a KD in the range of 100-1,000 nM. Readings with greater than 35% of control signal correspond to exceeding large dissociation constants.

Entries after “also recorded” stand apart in the source; their conditions may differ. Read-outs that look alike come from different tables or passages of the source.

Turning to `O=C(CCl)Nc1cccc(Oc2cc(NCc3ccccc3)ncn2)c1` [Compound 25, N-(3-((6-(benzylamino)pyrimidin-4-yl)oxy)phenyl)-2-chloroacetamide], the IC50 in data set [1] (30 min preincubation, read-out: MEK7 IC50) is 0.01 µM; in data set [1] (MEK7 IC50, first experiment (IC50±SEM, n=3), 30 min preincubation, first value in brackets) it was 0.017 µM; in data set [1] (MEK7 IC50, second experiment (IC50±SEM, n=3), 30 min preincubation, second value in brackets), less than 0.0014 µM; in data set [1] (MEK7 IC50 without preincubation, first experiment (n=3), without preincubation, first value in brackets), 0.067 ± 0.021 µM; in data set [1] (MEK7 IC50 without preincubation, second experiment (n=3), without preincubation, second value in brackets) it was 0.119 µM; in data set [1] (without 30 min preincubation, overall value, read-out: MEK7 IC50 without preincubation), 0.093 µM. The IC50 in data set [1] (without preincubation, no unit printed, read-out: MEK7 IC50 without preincubation) was determined as 0.093 µM. Further, in data set [2] (24 h incubation), the “concentration that potently attenuated JNK and ATF2 phosphorylation” value was in the range of 5 to 10 µM. For the same compound, the “effect on phosphorylation of JNK and ATF2” value in data set [2] (western blot, dose-response) is “decreased phosphorylation”. For the same compound, in data set [3], the cytotoxicity after washout result is on record as “resistant to washout”. Further, the “activity/binding at MEK5” value in data set [4] is “inactive; also recorded: lack of binding”. The “activity on JNK1/2/3” value in data set [5] is “no appreciable activity”.
